According to publication PMC3152332 (Nucleic Acids Research, 2011):

Experiments:
Ec-Mtq2-Trm112 = Ec-Mtq2-Trm112 (Encephalitozoon cuniculi, UniProt Q8SRR4); conditions: SAM co-purified with the complex; contacts only Mtq2 residues
yeast Mtq2-Trm112 = yeast Mtq2-Trm112 (Saccharomyces cerevisiae, UniProt Q03920); conditions: labelled compound; eRF1, eRF3 and GTP present
Hs-Mtq2 + Hs-Trm112 = Hs-Mtq2 + Hs-Trm112 (Homo sapiens, UniProt Q9Y5N5); conditions: labelled compound; with Hs-Trm112; methylation buffer, 30 °C, 15 min
Chain of Hs-Mtq2 + Hs-Trm112 (Q9Y5N5 whole entry): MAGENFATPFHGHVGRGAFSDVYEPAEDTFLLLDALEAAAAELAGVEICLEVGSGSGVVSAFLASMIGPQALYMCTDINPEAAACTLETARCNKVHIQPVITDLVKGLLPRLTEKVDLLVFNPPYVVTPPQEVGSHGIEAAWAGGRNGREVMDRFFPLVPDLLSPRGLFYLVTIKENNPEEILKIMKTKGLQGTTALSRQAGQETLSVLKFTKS
Chain of Hs-Mtq2 + Hs-Trm112 (Q9UI30 whole entry partner): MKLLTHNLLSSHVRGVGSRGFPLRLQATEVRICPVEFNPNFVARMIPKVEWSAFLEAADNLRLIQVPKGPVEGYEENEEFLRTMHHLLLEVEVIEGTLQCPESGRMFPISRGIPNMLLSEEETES

Chain of yeast Mtq2-Trm112 (Q03920 whole entry): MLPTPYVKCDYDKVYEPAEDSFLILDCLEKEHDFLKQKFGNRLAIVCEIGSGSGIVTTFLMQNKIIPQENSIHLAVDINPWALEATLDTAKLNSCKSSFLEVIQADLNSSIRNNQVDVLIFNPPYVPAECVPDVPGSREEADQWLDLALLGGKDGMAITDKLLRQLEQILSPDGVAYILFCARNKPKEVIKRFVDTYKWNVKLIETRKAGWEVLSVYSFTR
Chain of yeast Mtq2-Trm112 (P53738 whole entry partner): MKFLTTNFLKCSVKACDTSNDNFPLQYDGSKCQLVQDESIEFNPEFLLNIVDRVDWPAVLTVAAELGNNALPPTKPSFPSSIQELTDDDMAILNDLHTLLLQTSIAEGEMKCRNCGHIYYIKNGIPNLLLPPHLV
Chain of Ec-Mtq2-Trm112 (Q8SRR4 1-164): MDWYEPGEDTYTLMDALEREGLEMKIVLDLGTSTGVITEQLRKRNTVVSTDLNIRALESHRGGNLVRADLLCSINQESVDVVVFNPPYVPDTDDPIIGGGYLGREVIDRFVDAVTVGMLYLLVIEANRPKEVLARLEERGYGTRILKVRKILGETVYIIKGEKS
Chain of Ec-Mtq2-Trm112 (Q8SUP0 1-125 partner): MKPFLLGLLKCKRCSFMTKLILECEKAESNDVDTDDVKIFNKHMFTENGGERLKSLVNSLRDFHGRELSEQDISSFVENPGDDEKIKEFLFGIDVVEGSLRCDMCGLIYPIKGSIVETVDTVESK

## C[S+](CC[C@H](N)C(=O)O)C[C@H]1O[C@@H](n2cnc3c(N)ncnc32)[C@H](O)[C@@H]1O (stereo partly drawn) [SAM]
Ec-Mtq2-Trm112
  X-ray crystal structure, 2.1 Å: an unambiguous electron density corresponding to a SAM molecule is present in its expected binding site
Yeast Mtq2-Trm112
  [3H]SAM methylation of eRF1, initial velocity: incubating eRF1, eRF3 and GTP with Mtq2-Trm112 complex in presence of [3H] SAM
Hs-Mtq2 + Hs-Trm112
  SAM-binding activity: Incubation of this protein with an equimolar amount of Hs-Trm112 resulted in restoration of SAM-binding activity
